Results as given in PubChem BioAssay (NCI).
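Protocol summary: plate cells (96-well), add compound at 5 concentrations, incubate 48 h, interpolate endpoints linearly. Abbreviation: GI50, concentration required for 50% inhibition of growth. TGI denotes the concentration required for complete inhibition of growth.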

Tests used:
Experiment in all cases: inhibition of tumour cell growth, NCI panel, 48 h
[1] = system: SK-MEL-2 melanoma
[2] = system: M14 melanoma
[3] = system: RPMI-8226 leukemia
[4] = system: A498 renal
[5] = system: A549 NSCLC
[6] = system: SK-OV-3 ovarian
[7] = system: CAKI-1 renal
[8] = system: HCC-2998 colon
[9] = system: HL-60(TB) leukemia

| SMILES | GI50 [1] | TGI [1] | GI50 [2] | TGI [2] | GI50 [3] | TGI [3] | GI50 [4] | TGI [4] | GI50 [5] | TGI [5] | GI50 [6] | TGI [6] | GI50 [7] | TGI [7] | GI50 [8] | TGI [8] | TGI [9] | GI50 [9] |
| --- | --- | --- | --- | --- | --- | --- | --- | --- | --- | --- | --- | --- | --- | --- | --- | --- | --- | --- |
| C=C(CNCCc1ccc(O)cc1)[C@@H]1CC[C@]2(CO)CC[C@]3(C)[C@H](CC[C@@H]4[C@@]5(C)CCC(N)C(C)(C)[C@@H]5CC[C@]43C)[C@@H]12 (some centres undefined) | 1.79 µM | 3.4 µM | 1.75 µM | 3.33 µM | 1.44 µM | 4.04 µM | 1.44 µM | 2.79 µM | 1.66 µM | 3.13 µM | 1.84 µM | 3.34 µM | 1.59 µM | 3.1 µM | 1.66 µM | 3.3 µM |  |  |
| O=[N+]([O-])C1C2C=CC(C2)[C@H]1c1ccc(Cl)cc1Cl (some centres undefined) |  | > 100 µM |  |  |  | 69.1 µM |  | > 100 µM |  | > 100 µM |  |  |  |  |  | > 100 µM | 53.2 µM |  |
| NS(=O)(=O)c1ccc(NC(=O)c2cccn3c(=O)c4ccccc4nc23)cc1 |  |  |  | > 100 µM |  | > 100 µM |  | > 100 µM |  | > 100 µM |  | > 100 µM |  | > 100 µM |  |  | > 100 µM |  |
| COc1cc2cccc(N=Cc3c(Br)ccc(OC)c3OC(C)C)c2cc1OC |  | > 100 µM |  | > 100 µM |  | 63.7 µM |  | > 100 µM |  | > 100 µM |  | > 100 µM |  | 70.2 µM |  | > 100 µM |  |  |
| CC(=O)OCCC(O[Si](c1ccccc1)(c1ccccc1)C(C)(C)C)C(C)(C)O (centres undefined) |  | > 100 µM |  | > 100 µM |  | 63 µM |  | > 100 µM |  | > 100 µM |  | > 100 µM |  |  |  |  |  |  |
| C=CC1=CC(C)C[C@]1(O)C(=O)OC (some centres undefined) | > 100 µM |  | > 100 µM |  |  | < 0.01 µM | > 100 µM |  | > 100 µM |  |  | > 100 µM | > 100 µM |  | > 100 µM |  |  | > 100 µM |
| Cc1ccccc1NC(=O)C(=O)CC(=O)c1ccc([N+](=O)[O-])cc1 |  | > 100 µM |  | > 100 µM |  | > 100 µM |  |  |  | > 100 µM |  | > 100 µM |  | > 100 µM |  | > 100 µM |  |  |
| C/C(=N/NC(=O)CC(=O)N(C(=O)c1ccccc1Cl)c1ccc(C)cc1)c1cc2ccccc2oc1=O |  |  |  | > 100 µM |  |  |  | > 100 µM |  | > 100 µM |  |  |  | > 100 µM |  | > 100 µM | > 100 µM |  |
| O=C(O)[C@@H]1CCCC[C@@H]1C(=O)N(C1CCCCC1)C1CCCCC1 |  | > 100 µM |  | > 100 µM |  | > 100 µM |  | > 100 µM |  | > 100 µM |  | > 100 µM |  | > 100 µM |  | > 100 µM | > 100 µM |  |
| O=C(/C=C/c1cn(-c2ccccc2)nc1-c1ccc([N+](=O)[O-])cc1)c1ccc(Cl)cc1 | 5.03 µM | 23 µM |  |  |  |  | 4.99 µM | > 100 µM |  |  | 7.83 µM | > 77.3 µM | > 21.3 µM | > 100 µM | > 100 µM | > 100 µM | > 100 µM |  |
| C/C(=N/O)c1ccc2c(c1)C(=NO)c1cc(/C(C)=N/O)ccc1-2 |  | 40.1 µM |  | 31.2 µM |  | > 100 µM |  |  |  | 68.6 µM |  | 36.5 µM |  | > 100 µM |  | 33.9 µM | 91.4 µM |  |
| COc1ccc(-c2cc(/C=C/C(=O)c3cc(OC)c(OC)c(OC)c3)[nH]n2)cc1OC | 2.69 µM | 7.7 µM | 1.8 µM | 3.69 µM | 0.298 µM | 1.66 µM | 1.46 µM | 4.99 µM | 2.39 µM | 9.34 µM | 5.47 µM | 19 µM |  |  | 1.9 µM | 3.4 µM | 14.8 µM | 1.69 µM |
| NC(N)=N/N=C/c1c(-c2ccc(Cl)c([N+](=O)[O-])c2)nc2n1CCS2 |  |  | 15.4 µM | 29.1 µM | 3.66 µM | 10.9 µM | 18.3 µM | 39.5 µM | 16.1 µM | 77.9 µM | 24.7 µM | 75.1 µM | 13.5 µM | 28 µM |  |  | 6.27 µM | 2.34 µM |
| CC(C)(C)c1cc(CCC(=O)Nc2ccc(Cl)cc2Cl)nc(N)n1 |  | > 100 µM |  | > 100 µM |  |  |  |  |  | > 100 µM |  | > 100 µM |  | > 100 µM |  | > 100 µM | > 100 µM |  |
| COc1ccc2[nH]c3c(=O)[nH]ncc3c2c1 |  | > 100 µM |  | > 100 µM |  | > 100 µM |  | > 100 µM |  | > 100 µM |  | > 100 µM |  |  |  | > 100 µM | > 100 µM |  |
| CCOC(=O)C[C@@]12CCCNC1(C)CCc1ccccc12 (some centres undefined) |  | > 100 µM |  | > 100 µM |  | > 100 µM |  |  |  | > 100 µM |  | > 100 µM |  |  |  |  | > 100 µM |  |
